Measured values as given in paper PMC10215198, “Antibacterial Conjugates of Kanamycin A with Vancomycin and Eremomycin: Biological Activity and a New MS-Fragmentation Pattern of Cbz-Protected Amines” (Antibiotics, 2023).
≈ marks a conversion by molar mass, not a printed value.

Tests used:
S. aureus 3798 (VISA) = assay: MIC, broth micro-dilution, Gram-positive clinical isolate (VISA); type: cell-based, Staphylococcus aureus; conditions: Mueller Hinton broth, inoculum 5 × 10^5 CFU/mL, 24 h at 36 °C
Procedure: (§1) We performed a study of antibacterial activity of the synthesized compounds 17 on a panel of clinical isolates of the Gram-positive microorganisms S. haemolyticus 602, S. aureus 3798 (VISA), and Enterococcus faecalis 560 (Van A) and against the Gram-negative strain Escherichia coli 25922 ATCC by the MTT method (Table 1).
(§2) The in vitro study was performed according to the recommendations of the European Committee on Antimicrobial Susceptibility testing. The MIC values for Gram-positive and Gram-negative bacterial strains were determined by the broth micro-dilution method using Mueller Hinton broth (Acumedia Manufacturers Inc., Lansing, MI, USA) and the National Committee for Clinical Laboratory Standards procedures as described earlier.

[1] = tested on: Escherichia coli 25922 ATCC; assay: MIC, broth micro-dilution, Gram-negative strain; type: cell-based; conditions: Mueller Hinton broth, inoculum 5 × 10^5 CFU/mL, 24 h at 36 °C
Procedure: as §1, §2

[2] = tested on: Enterococcus faecalis 560 (Van A); assay: MIC, broth micro-dilution, Gram-positive clinical isolate (Van A); type: cell-based; conditions: Mueller Hinton broth, inoculum 5 × 10^5 CFU/mL, 24 h at 36 °C
Procedure: as §1, §2

S. haemolyticus 602 = assay: MIC, broth micro-dilution, Gram-positive clinical isolate; type: cell-based, Staphylococcus haemolyticus; conditions: Mueller Hinton broth, inoculum 5 × 10^5 CFU/mL, 24 h at 36 °C
Procedure: as §1, §2

Gram-positive bacteria = conditions: compared with vancomycin; cited from earlier work
Source text: Another antibiotic drug of this class, eremomycin (2), was discovered at the Gause Institute of New Antibiotics. It was isolated from Amycolatopsis orientalis subsp.

Molecule	MIC (Minimum Inhibitory Antibiotic Concentration), S. aureus 3798 (VISA) (S. aureus 3798 (VISA))	MIC (Minimum Inhibitory Antibiotic Concentration), E. coli 25922 ATCC [1]	MIC (Minimum Inhibitory Antibiotic Concentration), E. faecalis 560 (Van A) [2]	MIC (Minimum Inhibitory Antibiotic Concentration), E. coli 25922 ATCC ([1]; listed as 2)	MIC (Minimum Inhibitory Antibiotic Concentration), S. haemoliticus 602 (S. haemolyticus 602)	efficacy against Gram-positive bacteria relative to vancomycin (Gram-positive bacteria)	MIC (Minimum Inhibitory Antibiotic Concentration), E. coli 25922 ATCC ([1]; listed as 1)
3,6′-Di-Cbz-Kanamycinyl A 1-Amide of Eremomycin [Compound 6]	4 µg/mL	>64 µg/mL	8 µg/mL	–	–	–	–
3,6′-Di-Cbz-Kanamycinyl A 1-Amide of Vancomycin [Compound 5]	2 µg/mL	>64 µg/mL	32 µg/mL	–	–	–	–
CN[C@H](CC(C)C)C(=O)N[C@H]1C(=O)N[C@@H](CC(N)=O)C(=O)N[C@H]2C(=O)N[C@H]3C(=O)N[C@H](C(=O)N[C@@H](C(=O)O)c4cc(O)cc(O)c4-c4cc3ccc4O)[C@H](O[C@@H]3C[C@@](C)(N)[C@H](O)[C@@H](C)O3)c3ccc(cc3)Oc3cc2cc(c3O[C@H]2O[C@@H](CO)[C@H](O)[C@@H](O)[C@@H]2O[C@H]2C[C@](C)(N)[C@@H](O)[C@H](C)O2)Oc2ccc(cc2Cl)[C@H]1O (stereo in doubt) [Eremomycin (2), Eremomycin]	16 µg/mL (≈ 10.3 µM)	64 µg/mL (≈ 41.1 µM)	>64 µg/mL	> 64 µg/mL	0.25 µg/mL (≈ 0.16 µM)	three to five times higher	–
NC1CC(NC(=O)OCc2ccccc2)C(OC2OC(CNC(=O)OCc3ccccc3)C(O)C(O)C2O)C(O)C1OC1OC(CO)C(O)C(N)C1O (centres unmarked) [Compound 4, 3,6′-Di-Benzyloxycarbonyl-Kanamycin A]	–	>64 µg/mL	–	–	–	–	–
CN[C@H](CC(C)C)C(=O)N[C@H]1C(=O)N[C@@H](CC(N)=O)C(=O)N[C@H]2C(=O)N[C@H]3C(=O)N[C@H](C(=O)N[C@H](C(=O)O)c4cc(O)cc(O)c4-c4cc3ccc4O)[C@H](O)c3ccc(c(Cl)c3)Oc3cc2cc(c3O[C@@H]2O[C@H](CO)[C@@H](O)[C@H](O)[C@H]2O[C@H]2C[C@](C)(N)[C@H](O)[C@H](C)O2)Oc2ccc(cc2Cl)[C@H]1O [Vancomycin (1), Vancomycin]	8 µg/mL (≈ 5.52 µM)	>64 µg/mL	>64 µg/mL	–	1 µg/mL (≈ 0.69 µM)	–	> 64 µg/mL
Kanamycin A [Kanamycin A (3)]	–	4 µg/mL	–	–	–	–	–
Kanamycinyl A 1-Amide of Eremomycin [Compound 7]	2 µg/mL	>64 µg/mL	32 µg/mL	–	0.25 µg/mL	–	–
